Results reported in patent US20250368633A1, “AZEPINE FUSED RING COMPOUND AS RIPK1 INHIBITOR AND USE THEREOF” (ARTIVILA BIOPHARMA, priority 2022, published 2025).

Key:
[1] = tested on: U937 cells; assay: EC50 of necroptosis inhibition in U937 cells (TSZ-induced, CellTiter-Glo); assay type: cell-based; conditions: Homo sapiens, U-937; TSZ (hTNF-α, SM-164, Z-VAD-FMK) 20 hours; 10 concentration points; read-out: EC50 intervals of necroptosis inhibition in U937 cells
How it was run: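 Luminescent ATP readout (CellTiter-Glo) after 20 h gave viability of TSZ-challenged U937 cells; compounds were added 15 min ahead of TNF-α/SM-164/Z-VAD-FMK. EC50 derived by variable-slope nonlinear regression of inhibition relative to no-TSZ and TSZ-alone controls.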

[2] = biological target: T1, RIPK1 kinase (Homo sapiens, UniProt Q13546); assay: In vitro RIPK1 kinase activity assay (ADP-Glo), inhibition by compounds at 1 μM; assay type: biochemical; conditions: compound 1 μM; ATP 10 μM; MBP substrate 100 μg/mL; read-out: RIPK1 kinase activity inhibition rate range
T1 construct: purchased Promega VA7593
T1 sequence (Q13546 1-671): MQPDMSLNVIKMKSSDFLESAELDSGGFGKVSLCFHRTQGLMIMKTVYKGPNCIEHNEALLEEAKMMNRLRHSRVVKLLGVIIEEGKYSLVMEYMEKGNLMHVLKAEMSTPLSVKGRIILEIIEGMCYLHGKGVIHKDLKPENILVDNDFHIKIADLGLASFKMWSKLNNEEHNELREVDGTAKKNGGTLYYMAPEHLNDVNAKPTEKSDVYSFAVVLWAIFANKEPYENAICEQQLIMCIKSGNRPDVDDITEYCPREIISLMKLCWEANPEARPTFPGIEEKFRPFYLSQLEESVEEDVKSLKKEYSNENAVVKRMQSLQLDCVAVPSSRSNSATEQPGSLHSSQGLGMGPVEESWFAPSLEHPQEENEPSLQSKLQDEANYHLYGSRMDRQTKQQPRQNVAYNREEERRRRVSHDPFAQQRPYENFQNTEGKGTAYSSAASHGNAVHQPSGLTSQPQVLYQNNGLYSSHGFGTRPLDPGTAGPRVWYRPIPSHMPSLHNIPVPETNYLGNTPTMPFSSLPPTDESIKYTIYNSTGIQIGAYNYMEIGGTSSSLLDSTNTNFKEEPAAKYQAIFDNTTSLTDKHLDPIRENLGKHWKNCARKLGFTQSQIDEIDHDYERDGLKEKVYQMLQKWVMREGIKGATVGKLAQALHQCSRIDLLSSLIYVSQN
How it was run: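 Read by ADP-Glo chemiluminescence as percent inhibition: RIPK1 kinase, 15-min room-temperature compound preincubation, then 1-h reaction with MBP (100 μg/mL final) and ATP (10 μM final). Enzyme level was set by titration.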

[3] = tested on: U937 cells; assay: Inhibition rate of compound (1 μM) on necroptosis of U937 cells (TSZ-induced, CellTiter-Glo); assay type: cell-based; conditions: TSZ (hTNF-α, SM-164, Z-VAD-FMK) 20 hours
How it was run: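 Percent inhibition comes from ATP luminescence (CellTiter-Glo), referenced to wells without TSZ and wells with TSZ alone. The compound was added to U937 cells 15 min ahead of a TNF-α/SM-164/Z-VAD-FMK mix, followed by 20 h culture at 37° C, 5% CO2.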

Row | SMILES | EC50 [1] [nM] | inhibition at 1 µM [2] [%] | Inhibition rate range of compounds (1 μM) on U937 cell necroptosis [3]
1 | CN1C(=O)[C@@H](NC(=O)C(=O)NCCc2ccccc2)COc2ccc(C#CCN3CCNCC3)cc21 [Example 49, (S)—N^1-(5-methyl-4-oxo-7-(3-(piperazin-1-yl)prop-1-yn-1-yl)-2,3,4,5-tetrahydrobenzo[b][1,4]oxazepin-3-yl)-N^2-phenethyloxalamide] | 100 to 500 | 50 to 74 | A (A: ≥90%)
2 | CN1C(=O)[C@@H](NC(=O)C(=O)NCCc2ccccc2)COc2ccc(C#CC3CCN(CCOCCOCC(=O)OC(C)(C)C)CC3)cc21 [Example 53, tert-butyl (S)-2-(2-(2-(4-((5-methyl-4-oxo-3-(2-oxo-2-(phenethylamino)acetamido)-2,3,4,5-tetrahydrobenzo[b][1,4]oxazepin-7-yl)ethynyl)piperidin-1-yl)ethoxy)ethoxy)acetate] | < 100 | 25 to 49 | A (A: ≥90%)
3 | CN1C(=O)[C@@H](NC(=O)C(=O)NCCc2ccccc2)COc2ccc(C#CC3CCN(CCOCCOCC(=O)O)CC3)cc21 [Example 54, (S)-1-(2-(2-(carboxymethoxy)ethoxy)ethyl)-4-((5-methyl-4-oxo-3-(2-oxo-2-(phenethylamino)acetamido)-2,3,4,5-tetrahydrobenzo[b][1,4]oxazepin-7-yl)ethynyl)piperidin-1-ium 2,2,2-trifluoroacetate] | 500 to 2000 | 50 to 74 | B (B: 50-89%)
4 | Cc1ncsc1-c1ccc(CNC(=O)[C@@H]2C[C@@H](O)CN2C(=O)[C@@H](NC(=O)COCCOCCN2CCC(C#Cc3ccc4c(c3)N(C)C(=O)[C@@H](NC(=O)C(=O)NCCc3ccccc3)CO4)CC2)C(C)(C)C)cc1 [Example 55, N^1-((S)-7-((1-(2-(2-(2-(((S)-1-((2S,4R)-4-hydroxy-2-((4-(4-methylthiazol-5-yl)benzyl)carbamoyl)pyrrolidin-1-yl)-3,3-dimethyl-1-oxobutan-2-yl)amino)-2-oxoethoxy)ethoxy)ethyl)piperidin-4-yl)ethynyl)-5-methyl-4-oxo-2,3,4,5-tetrahydrobenzo[b][1,4]oxazepin-3-yl)-N^2-phenethyloxalamide] | < 100 | 50 to 74 | A (A: ≥90%)
5 | CN1C(=O)[C@@H](NC(=O)C(=O)NCCc2ccccc2)COc2ccc(C#CC3CCN(CCOCCOCC(=O)Nc4cccc5c4CN(C4CCC(=O)NC4=O)C5=O)CC3)cc21 (stereo partly drawn) [Example 56, N^1-((3S)-7-((1-(2-(2-(2-(2-(2,6-dioxopiperidin-3-yl)-(1-oxoisoindolin-4-yl)amino)-2-oxoethoxy)ethoxy)ethyl)piperidin-4-yl)ethynyl)-5-methyl-4-oxo-2,3,4,5-tetrahydrobenzo[b][1,4]oxazepin-3-yl)-N^2-phenethyloxalamide] | < 100 | 25 to 49 | A (A: ≥90%)
6 | CN1C(=O)[C@@H](NC(=O)C(=O)NCCc2ccccc2)COc2ccccc21 [Example 57, (S)—N^1-(5-methyl-4-oxo-2,3,4,5-tetrahydrobenzo[b][1,4]oxazepin-3-yl)-N^2-phenethyloxalamide] | 100 to 500 | ≥ 75 | A (A: ≥90%)
7 | CN1C(=O)[C@@H](NC(=O)C(=O)NCc2ccccc2)COc2ccccc21 [Example 58, (S)—N^1-benzyl-N^2-(5-methyl-4-oxo-2,3,4,5-tetrahydrobenzo[b][1,4]oxazepin-3-yl)oxalamide] | 500 to 2000 | 25 to 49 | B (B: 50-89%)
8 | CN1C(=O)C(NC(=O)C(=O)NCCc2ccccc2)CCc2cc(Br)ccc21 (stereo not drawn) [Example 63, N^1-(7-bromo-1-methyl-2-oxo-2,3,4,5-tetrahydro-1H-benzo[b]azepin-3-yl)-N^2-phenethyloxalamide] | 100 to 500 | 25 to 49 | A (A: ≥90%)
9 | CN1C(=O)C(NC(=O)C(=O)NCc2ccccc2)CCc2ccccc21 (stereo not drawn) [Example 68, N^1-benzyl-N^2-(1-methyl-2-oxo-2,3,4,5-tetrahydro-1H-benzo[b]azepin-3-yl)oxalamide] | 500 to 2000 | ≥ 75 | B (B: 50-89%)
10 | CN1C(=O)C(NC(=O)C(=O)NCCc2ccccc2)CCc2cccnc21 (stereo not drawn) [Example 69, N^1-(9-methyl-8-oxo-6,7,8,9-tetrahydro-5H-pyrido[2,3-b]azepin-7-yl)-N^2-phenethyloxalamide] | 500 to 2000 | ≥ 75 | B (B: 50-89%)
11 | CN1C(=O)[C@H](NC(=O)C(=O)NCCc2ccccc2)COc2ccc(Br)cc21 [Example 71, (R)—N^1-(7-bromo-5-methyl-4-oxo-2,3,4,5-tetrahydrobenzo[b][1,4]oxazepin-3-yl)-N^2-phenethyloxalamide] | 500 to 2000 | 50 to 74 | B (B: 50-89%)
12 | CN1C(=O)[C@@H](NC(=O)C(=O)NCCc2ccccc2)COc2ccc(C#CCn3ccnc3)cc21 [Example 72, (S)—N^1-(7-(3-(1H-imidazol-1-yl)prop-1-yn-1-yl)-5-methyl-4-oxo-2,3,4,5-tetrahydrobenzo[b][1,4]oxazepin-3-yl)-N^2-phenethyloxalamide] | < 100 | ≥ 75 | A (A: ≥90%)
13 | CN1CCC(C#Cc2ccc3c(c2)N(C)C(=O)[C@@H](NC(=O)C(=O)NCCc2ccccc2)CO3)CC1 [Example 73, (S)—N^1-(5-methyl-7-((1-methylpiperidin-4-yl)ethynyl)-4-oxo-2,3,4,5-tetrahydrobenzo[b][1,4]oxazepin-3-yl)-N^2-phenethyloxalamide] | < 100 | ≥ 75 | A (A: ≥90%)
14 | CN(C)c1ccc(C#Cc2ccc3c(c2)N(C)C(=O)[C@@H](NC(=O)C(=O)NCCc2ccccc2)CO3)cc1 [Example 75, (S)—N^1-(7-((4-(dimethylamino)phenyl)ethynyl)-5-methyl-4-oxo-2,3,4,5-tetrahydrobenzo[b][1,4]oxazepin-3-yl)-N^2-phenethyloxalamide] | < 100 | 25 to 49 | A (A: ≥90%)
15 | CN1C(=O)[C@@H](NC(=O)C(=O)NCCc2ccccc2)COc2ccc(C#CCN3CCN(CCO)CC3)cc21 [Example 83, (S)—N^1-(7-(3-(4-(2-hydroxyethyl)piperazin-1-yl)prop-1-yn-1-yl)-5-methyl-4-oxo-2,3,4,5-tetrahydrobenzo[b][1,4]oxazepin-3-yl)-N^2-phenethyloxalamide] | < 100 | ≥ 75 | A (A: ≥90%)
16 | CN1C(=O)[C@@H](NC(=O)C(=O)NCCc2ccccc2)COc2ccc(C#CCN)cc21.Cl [Example 87, (S)—N^1-(7-(3-aminoprop-1-yn-1-yl)-5-methyl-4-oxo-2,3,4,5-tetrahydrobenzo[b][1,4]oxazepin-3-yl)-N^2-phenethyloxalamide hydrochloride] | 500 to 2000 | 25 to 49 | B (B: 50-89%)
17 | CC(=O)N1CC(O)(C#Cc2ccc3c(c2)N(C)C(=O)[C@@H](NC(=O)C(=O)NCCc2ccccc2)CO3)C1 [Example 93, (S)—N^1-(7-((1-acetyl-3-hydroxyazetidin-3-yl)ethynyl)-5-methyl-4-oxo-2,3,4,5-tetrahydrobenzo[b][1,4]oxazepin-3-yl)-N^2-phenethyloxalamide] | 100 to 500 | ≥ 75 | A (A: ≥90%)
18 | CN1C(=O)[C@@H](NC(=O)C(=O)NCCc2ccccc2)COc2ccc(C#CCCC(=O)O)cc21 [Example 95, (S)-5-(5-methyl-4-oxo-3-(2-oxo-2-(phenethylamino)acetamido)-2,3,4,5-tetrahydrobenzo[b][1,4]oxazepin-7-yl) pent-4-ynoic acid] | 500 to 2000 | ≥ 75 | B (B: 50-89%)
